Patent US10202658B2, “Methods for determining hypersusceptibility of HIV-1 to non-nucleoside reverse transcriptase inhibitors” (Monogram Biosciences, Inc., priority 2005, dated 2019)

Test system: HIV-1 clinical isolates grouped by RT mutations
Test: Pairwise comparison of NNRTI fold change between groups of clinical isolates (Student's T-test, Bonferroni's Multiple Comparison Test)
Assay type: cell-based
Protocol: This example provides methods and compositions for identifying mutations that correlate with hypersusceptibility to a NNRTI. Resistance test vectors were constructed and used as described in Example 1. Resistance test vectors derived from patient samples or clones derived from the resistance test vector pools were tested in a resistance assay to determine accurately and quantitatively the relative EFV, DLV, or NVP resistance or susceptibility compared to the median observed resistance or susceptibility.
To identify mutations associated with NNRTI hypersusceptibility, the following analysis was performed. […] The TAMs referenced in. Table 1 include M41L, D67N, K70R, L210W, T215FY, and K219X, while the NAMs referenced include K65R, T69X, L74IV, V75X, and M184IV. Isolates without NRTI, NNRTI or PI mutations served as a wild type (WT) reference group. Further comparison groups comprised isolates with three TAMS including T215Y (+/−H208Y, +/−V118I) or three TAMS including K70R. Scatter plots and statistical tests (See FIGS. 1-6) were generated using Prism 4.0 (GraphPad, San Diego, Calif.)
In addition, a pairwise comparison between two sets of data was conducted using Bonferroni's Multiple Comparison Test using the Prism 4.0 software. The results of the comparison are presented in Tables 2, 3, and 4, appended to the end of this document. Samples with K65R, K65R+M184V, or 2 TAMs in combination with T215Y had over 40% with EFV FC<0.4.

Cc1ccnc2c1NC(=O)c1cccnc1N2C1CC1 [NVP, nevirapine]
Mean Diff. of fold change (1 NAM vs 2 NAMs): 0.2694
Mean Diff. of fold change (1 NAM vs 3 NAMs): 0.221
Mean Diff. of fold change (1 NAM vs K65R): 0.3361
Mean Diff. of fold change (1 NAM vs K65R + M184V): 0.3786
Mean Diff. of fold change (1 NAM vs K70R_3_TAMs): 0.08835
Mean Diff. of fold change (1 NAM vs M184V): −0.01357
Mean Diff. of fold change (1 NAM vs T69): −0.03843
Mean Diff. of fold change (1 NAM vs T215Y_3_TAMs): 0.211
Mean Diff. of fold change (1 NAM vs T215Y_3_TAMs_118): 0.2013
Mean Diff. of fold change (1 NAM vs T215Y_3_TAMs_208): 0.2552
Mean Diff. of fold change (1 NAM vs T215Y_3_TAMs_no118): 0.2175
Mean Diff. of fold change (1 NAM vs T215Y_3_TAMs_no208): 0.204
Mean Diff. of fold change (2 NAMs vs 3 NAMs): −0.04846
Mean Diff. of fold change (2 NAMs vs K65R): 0.06669
Mean Diff. of fold change (2 NAMs vs K65R + M184V): 0.1092
Mean Diff. of fold change (2 NAMs vs K70R_3_TAMs): −0.1811
Mean Diff. of fold change (2 NAMs vs M184V): −0.283
Mean Diff. of fold change (2 NAMs vs T69): −0.3079
Mean Diff. of fold change (2 NAMs vs T215Y_3_TAMs): −0.05842
Mean Diff. of fold change (2 NAMs vs T215Y_3_TAMs_118): −0.06817
Mean Diff. of fold change (2 NAMs vs T215Y_3_TAMs_208): −0.01419
Mean Diff. of fold change (2 NAMs vs T215Y_3_TAMs_no118): −0.05192
Mean Diff. of fold change (2 NAMs vs T215Y_3_TAMs_no208): −0.06547
Mean Diff. of fold change (3 NAMs vs K65R): 0.1151
Mean Diff. of fold change (3 NAMs vs K65R + M184V): 0.1577
Mean Diff. of fold change (3 NAMs vs K70R_3_TAMs): −0.1326
Mean Diff. of fold change (3 NAMs vs M184V): −0.2345
Mean Diff. of fold change (3 NAMs vs T69): −0.2594
Mean Diff. of fold change (3 NAMs vs T215Y_3_TAMs): −0.009962
Mean Diff. of fold change (3 NAMs vs T215Y_3_TAMs_118): −0.01971
Mean Diff. of fold change (3 NAMs vs T215Y_3_TAMs_208): 0.03427
Mean Diff. of fold change (3 NAMs vs T215Y_3_TAMs_no118): −0.003462
Mean Diff. of fold change (3 NAMs vs T215Y_3_TAMs_no208): −0.01701
Mean Diff. of fold change (K65R + M184V vs K70R_3_TAMs): −0.2903
Mean Diff. of fold change (K65R + M184V vs T215Y_3_TAMs): −0.1676
Mean Diff. of fold change (K65R + M184V vs T215Y_3_TAMs_118): −0.1774
Mean Diff. of fold change (K65R + M184V vs T215Y_3_TAMs_208): −0.1234
Mean Diff. of fold change (K65R + M184V vs T215Y_3_TAMs_no118): −0.1611
Mean Diff. of fold change (K65R + M184V vs T215Y_3_TAMs_no208): −0.1747
Mean Diff. of fold change (K65R vs K65R + M184V): 0.04252
Mean Diff. of fold change (K65R vs K70R_3_TAMs): −0.2478
Mean Diff. of fold change (K65R vs M184V): −0.3497
Mean Diff. of fold change (K65R vs T69): −0.3746
Mean Diff. of fold change (K65R vs T215Y_3_TAMs): −0.1251
Mean Diff. of fold change (K65R vs T215Y_3_TAMs_118): −0.1349
Mean Diff. of fold change (K65R vs T215Y_3_TAMs_208): −0.08088
Mean Diff. of fold change (K65R vs T215Y_3_TAMs_no118): −0.1186
Mean Diff. of fold change (K65R vs T215Y_3_TAMs_no208): −0.1322
Mean Diff. of fold change (K70R_3_TAMs vs T215Y_3_TAMs_118): 0.1129
Mean Diff. of fold change (K70R_3_TAMs vs T215Y_3_TAMs_no118): 0.1292
Mean Diff. of fold change (M184V vs K65R + M184V): 0.3922
Mean Diff. of fold change (M184V vs K70R_3_TAMs): 0.1019
Mean Diff. of fold change (M184V vs T69): −0.02486
Mean Diff. of fold change (M184V vs T215Y_3_TAMs): 0.2246
Mean Diff. of fold change (M184V vs T215Y_3_TAMs_118): 0.2148
Mean Diff. of fold change (M184V vs T215Y_3_TAMs_208): 0.2688
Mean Diff. of fold change (M184V vs T215Y_3_TAMs_no118): 0.2311
Mean Diff. of fold change (M184V vs T215Y_3_TAMs_no208): 0.2175
Mean Diff. of fold change (T69 vs K65R + M184V): 0.4171
Mean Diff. of fold change (T69 vs K70R_3_TAMs): 0.1268
Mean Diff. of fold change (T69 vs T215Y_3_TAMs): 0.2494
Mean Diff. of fold change (T69 vs T215Y_3_TAMs_118): 0.2397
Mean Diff. of fold change (T69 vs T215Y_3_TAMs_208): 0.2937
Mean Diff. of fold change (T69 vs T215Y_3_TAMs_no118): 0.2559
Mean Diff. of fold change (T69 vs T215Y_3_TAMs_no208): 0.2424
Mean Diff. of fold change (T215Y_3_TAMs vs K70R_3_TAMs): −0.1227
Mean Diff. of fold change (T215Y_3_TAMs vs T215Y_3_TAMs_118): −0.00975
Mean Diff. of fold change (T215Y_3_TAMs vs T215Y_3_TAMs_208): 0.04423
Mean Diff. of fold change (T215Y_3_TAMs vs T215Y_3_TAMs_no118): 0.0065
Mean Diff. of fold change (T215Y_3_TAMs vs T215Y_3_TAMs_no208): −0.007051
Mean Diff. of fold change (T215Y_3_TAMs_208 vs K70R_3_TAMs): −0.1669
Mean Diff. of fold change (T215Y_3_TAMs_208 vs T215Y_3_TAMs_118): −0.05398
Mean Diff. of fold change (T215Y_3_TAMs_208 vs T215Y_3_TAMs_no118): −0.03773
Mean Diff. of fold change (T215Y_3_TAMs_208 vs T215Y_3_TAMs_no208): −0.05128
Mean Diff. of fold change (T215Y_3_TAMs_no118 vs T215Y_3_TAMs_118): −0.01625
Mean Diff. of fold change (T215Y_3_TAMs_no208 vs K70R_3_TAMs): −0.1156
Mean Diff. of fold change (T215Y_3_TAMs_no208 vs T215Y_3_TAMs_118): −0.002699
Mean Diff. of fold change (T215Y_3_TAMs_no208 vs T215Y_3_TAMs_no118): 0.01355
mean fold change (FC) compared to the WT population (all groups containing NAMs or the combination of TAMs shown in Table 1, p<0.0001, Student's T-test): significantly lower
Mean Diff. of fold change (wt vs 1 NAM): 0.1982
Mean Diff. of fold change (wt vs 2 NAMs): 0.4677
Mean Diff. of fold change (wt vs 3 NAMs): 0.4192
Mean Diff. of fold change (wt vs K65R): 0.5344
Mean Diff. of fold change (wt vs K65R + M184V): 0.5769
Mean Diff. of fold change (wt vs K70R_3_TAMs): 0.2866
Mean Diff. of fold change (wt vs M184V): 0.1847
Mean Diff. of fold change (wt vs T69): 0.1598
Mean Diff. of fold change (wt vs T215Y_3_TAMs): 0.4092
Mean Diff. of fold change (wt vs T215Y_3_TAMs_118): 0.3995
Mean Diff. of fold change (wt vs T215Y_3_TAMs_208): 0.4535
Mean Diff. of fold change (wt vs T215Y_3_TAMs_no118): 0.4157
Mean Diff. of fold change (wt vs T215Y_3_TAMs_no208): 0.4022
